Measured values from ChEMBL document CHEMBL2331321, “Design, synthesis, and biological evaluation of 3-aryl-3-hydroxy-1-phenylpyrrolidine derivatives as novel androgen receptor antagonists” (Bioorg Med Chem, 2013).

How the values were obtained:
Androgen receptor [1] = molecular target: T1, Androgen receptor (Homo sapiens, UniProt P10275)
T1 sequence (P10275 whole entry): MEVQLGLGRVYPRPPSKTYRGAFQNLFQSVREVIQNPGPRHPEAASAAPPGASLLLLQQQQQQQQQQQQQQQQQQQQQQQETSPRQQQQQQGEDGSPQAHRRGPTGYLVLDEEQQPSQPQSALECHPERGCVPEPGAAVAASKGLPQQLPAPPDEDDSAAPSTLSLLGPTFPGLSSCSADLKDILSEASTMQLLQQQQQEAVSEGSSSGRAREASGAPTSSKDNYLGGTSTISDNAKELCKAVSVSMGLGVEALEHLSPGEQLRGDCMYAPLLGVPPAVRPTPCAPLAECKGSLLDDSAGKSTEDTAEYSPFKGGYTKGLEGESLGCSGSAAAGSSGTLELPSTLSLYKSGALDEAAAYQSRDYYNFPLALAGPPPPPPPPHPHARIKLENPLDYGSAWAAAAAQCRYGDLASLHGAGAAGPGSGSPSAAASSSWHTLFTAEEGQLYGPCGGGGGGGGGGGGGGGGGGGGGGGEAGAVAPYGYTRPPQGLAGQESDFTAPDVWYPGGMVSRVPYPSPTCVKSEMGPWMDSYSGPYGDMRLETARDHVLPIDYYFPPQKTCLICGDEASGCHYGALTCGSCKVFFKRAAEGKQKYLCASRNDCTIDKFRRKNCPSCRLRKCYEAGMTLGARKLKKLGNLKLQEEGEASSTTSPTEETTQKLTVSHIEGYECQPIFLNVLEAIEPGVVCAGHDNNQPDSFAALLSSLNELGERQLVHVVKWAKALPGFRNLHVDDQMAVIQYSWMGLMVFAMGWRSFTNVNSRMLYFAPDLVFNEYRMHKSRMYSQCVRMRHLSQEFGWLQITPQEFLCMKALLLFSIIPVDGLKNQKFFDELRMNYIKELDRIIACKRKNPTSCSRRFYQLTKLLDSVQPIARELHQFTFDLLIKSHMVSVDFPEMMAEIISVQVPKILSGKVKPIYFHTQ
Description: Antagonist activity at wild type Androgen receptor (unknown origin) expressed in human Cos-7 cells co-expressing pGL3-MMTV-luc vector assessed as luciferase activity by reporter gene assay

Androgen receptor [2] = molecular target: T2, Androgen receptor (Homo sapiens, UniProt P10275, T878A)
T2 sequence (P10275 whole entry T878A): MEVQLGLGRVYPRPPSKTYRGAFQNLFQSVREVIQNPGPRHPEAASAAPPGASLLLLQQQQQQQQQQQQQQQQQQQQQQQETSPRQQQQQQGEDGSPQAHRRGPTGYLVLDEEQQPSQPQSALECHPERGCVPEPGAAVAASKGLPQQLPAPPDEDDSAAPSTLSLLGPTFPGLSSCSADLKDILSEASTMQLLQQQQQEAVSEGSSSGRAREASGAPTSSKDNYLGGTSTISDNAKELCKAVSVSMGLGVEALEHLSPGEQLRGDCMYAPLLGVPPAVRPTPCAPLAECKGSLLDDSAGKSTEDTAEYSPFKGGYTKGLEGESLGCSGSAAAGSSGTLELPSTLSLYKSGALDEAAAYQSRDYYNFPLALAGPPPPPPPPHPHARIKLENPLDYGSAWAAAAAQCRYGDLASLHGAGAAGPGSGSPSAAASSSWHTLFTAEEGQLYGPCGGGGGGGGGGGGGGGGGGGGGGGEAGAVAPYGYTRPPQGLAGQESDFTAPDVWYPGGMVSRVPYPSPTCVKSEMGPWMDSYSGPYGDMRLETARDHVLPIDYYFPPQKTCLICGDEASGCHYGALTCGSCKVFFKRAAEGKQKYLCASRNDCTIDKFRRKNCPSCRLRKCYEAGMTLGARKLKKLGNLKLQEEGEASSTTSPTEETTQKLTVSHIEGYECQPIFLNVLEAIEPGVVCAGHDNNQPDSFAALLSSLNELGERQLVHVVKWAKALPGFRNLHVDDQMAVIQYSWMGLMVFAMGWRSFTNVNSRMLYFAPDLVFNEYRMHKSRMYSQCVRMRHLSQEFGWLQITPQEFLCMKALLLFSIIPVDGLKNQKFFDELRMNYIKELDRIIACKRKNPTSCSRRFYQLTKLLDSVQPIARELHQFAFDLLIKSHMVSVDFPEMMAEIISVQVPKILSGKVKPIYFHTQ
Description: Agonist activity at Androgen receptor T877A mutant in human LNCaP-hr cells assessed as prostate specific antigen secretion measured after 3 days by enzyme-immunoassay

Androgen receptor [3] = molecular target: T1, Androgen receptor; remark: listed apart in the source
Description: Agonist activity at wild type Androgen receptor in human LNCaP-hr cells assessed as prostate specific antigen secretion measured after 3 days by enzyme-immunoassay

Androgen receptor [4] = molecular target: T2, Androgen receptor; remark: listed apart in the source
Description: Antagonist activity at Androgen receptor T877A mutant (unknown origin) expressed in human Cos-7 cells co-expressing pGL3-MMTV-luc vector assessed as luciferase activity by reporter gene assay

Androgen receptor [5] = molecular target: T2, Androgen receptor; remark: listed apart in the source
Description: Inhibition of Androgen receptor T877A mutant (unknown origin) expressed in Freestyle293F cells

Androgen receptor [6] = molecular target: T1, Androgen receptor; remark: listed apart in the source
Description: Inhibition of wild type Androgen receptor (unknown origin) expressed in Freestyle293F cells

[7] = Antitumor activity against human LNCaP-hr cells in BALB/c mouse xenograft model assessed as plasma prostate specific antigen level at 10 mg/kg, po bid for 28 days by ELISA (reference value: 23.8 +/- 6.1 ng/ml); assay type: functional
[8] = Antitumor activity against human LNCaP-hr cells in BALB/c mouse xenograft model assessed as plasma prostate specific antigen level at 30 mg/kg, po bid for 28 days by ELISA (reference value: 23.8 +/- 6.1 ng/ml); assay type: functional
[9] = AUC in mouse at 30 mg/kg, po; assay type: ADME, organism-based; design: dose 30 mg/kg, route oral; conditions: plasma
[10] = Antitumor activity against human LNCaP-hr cells in BALB/c mouse xenograft model assessed as inhibition of tumor growth at 30 mg/kg, po bid for 28 days (reference value: 100%); assay type: functional
[11] = Antitumor activity against human LNCaP-hr cells in BALB/c mouse xenograft model assessed as inhibition of tumor growth at 10 mg/kg, po bid for 28 days (reference value: 100%); assay type: functional
[12] = Mean residence time in mouse at 30 mg/kg, po; assay type: ADME, organism-based; design: dose 30 mg/kg, route oral; conditions: in vivo
[13] = Half life in mouse plasma; assay type: ADME, cell-free
[14] = Antitumor activity against human LNCaP-hr cells in BALB/c mouse xenograft model assessed as inhibition of tumor growth at 100 mg/kg, po qd for 28 days (reference value: 100%); assay type: functional
[15] = Antitumor activity against human LNCaP-hr cells in BALB/c mouse xenograft model assessed as plasma prostate specific antigen level at 100 mg/kg, po qd for 28 days by ELISA (reference value: 23.8 +/- 6.1 ng/ml); assay type: functional

| Compound | IC50 (Androgen receptor [1]) [µM] | EC50 (Androgen receptor [2]) [µM] | EC50 (Androgen receptor [3]) [µM] | IC50 (Androgen receptor [4]) [µM] | IC50 (Androgen receptor [5]) [µM] | IC50 (Androgen receptor [6]) [µM] | further results |
| --- | --- | --- | --- | --- | --- | --- | --- |
| N#Cc1ccc(N2CCC(O)(Cc3ccccc3)C2)cc1Cl (configuration not stated) | 1 | 4.8 | > 10 | 0.45 | 0.059 | 0.42 | – |
| N#Cc1ccc(N2CCC(O)C2)cc1Cl (configuration not stated) | 0.082 | 0.64 | 4.7 | > 10 | 0.03 | 0.12 | – |
| C[C@@H]1N(c2ccc(C#N)c(Cl)c2)CC[C@@]1(O)c1ccc(F)cc1 | 0.017 | 0.02 | > 10 | > 10 | 0.0081 | 0.008 | – |
| C[C@@H]1N(c2ccc(C#N)c(Cl)c2)CC[C@@]1(O)c1ccc(C(N)=O)cc1 | 0.017 | 10 | > 10 | 0.009 | 0.042 | 0.027 | – |
| CNC(=O)c1ccc([C@]2(O)CCN(c3ccc(C#N)c(Cl)c3)[C@H]2C)cc1 | 0.0086 | 10 | > 10 | 0.01 | 0.018 | 0.032 | – |
| CNC(=O)c1ccc([C@]2(O)CCN(c3ccc(C#N)c(Cl)c3)[C@H]2C)nc1 | 0.12 | 5.1 | > 10 | 0.1 | 0.016 | 0.068 | – |
| CNC(=O)c1ccc([C@]2(O)CCN(c3ccc(C#N)c(Cl)c3)[C@H]2C)cn1 | 0.025 | > 10 | > 10 | 0.099 | 0.1 | 0.044 | – |
| C[C@@H]1N(c2ccc(C#N)c(Cl)c2)CC[C@@]1(O)c1ccc(C(=O)N(C)C)nc1 | 1.7 | > 10 | > 10 | 10 | 3 | 1.1 | – |
| CNC(=O)c1ccc([C@@]2(O)CCN(c3ccc(C#N)c(Cl)c3)[C@@H]2C)cn1 | 6.4 | > 10 | > 10 | 1.6 | 0.097 | 1.6 | – |
| C[C@@H]1N(c2ccc(C#N)c(Cl)c2)CC[C@@]1(O)c1ccc(N2CCCC2=O)nc1 | 0.011 | – | – | 0.16 | 0.087 | 0.013 | – |
| CNC(=O)c1ccc([C@]2(O)CCN(c3ccc(C#N)c(OC)c3)[C@H]2C)cn1 | 0.062 | – | – | 0.73 | 0.24 | 0.12 | – |
| CNC(=O)c1ccc([C@]2(O)CCN(c3ccc(C#N)cc3)[C@H]2C)cn1 | 0.4 | – | – | 1.4 | 5.3 | 7.6 | – |
| CNC(=O)c1ccc([C@]2(O)CCN(c3ccc(C#N)c(F)c3)[C@H]2C)cn1 | 0.29 | – | – | 1.7 | 1.7 | 0.83 | Activity [7]: 33 ng/mL; Activity [8]: 4.3 ng/mL; AUC [9]: 232 µg·h/mL; T/C [10]: 18%; T/C [11]: 139%; MRT [12]: 4.07 h |
| N#Cc1ccc(N2CCC(O)(c3ccccc3)C2)cc1Cl (racemic) | 0.38 | > 10 | > 10 | 0.25 | 0.13 | 0.37 | – |
| N#Cc1ccc(N2CCC(O)(c3ccc(F)cc3)C2)cc1Cl (racemic) | 0.068 | > 10 | > 10 | 0.065 | 0.036 | 0.18 | – |
| C[C@](O)(CS(=O)(=O)c1ccc(F)cc1)C(=O)Nc1ccc(C#N)c(C(F)(F)F)c1 [(R)-BICALUTAMIDE] | – | – | – | – | – | – | half-life [13]: 101 h |
| C[C@@](O)(CS(=O)(=O)c1ccc(F)cc1)C(=O)Nc1ccc(C#N)c(C(F)(F)F)c1 [(S)-BICALUTAMIDE] | – | – | – | – | – | – | half-life [13]: 19 h |
| CC(O)(CS(=O)(=O)c1ccc(F)cc1)C(=O)Nc1ccc(C#N)c(C(F)(F)F)c1 (configuration not stated) [BICALUTAMIDE] | – | – | – | – | – | – | T/C [14]: 191%; Activity [15]: 45.6 ng/mL |
